Data from patent publication US9192602B2, “Indication of anthra[2,1,c][1,2,5]thiadiazole-6,11-dione compound in alleviating pain” (NATIONAL CENTRAL UNIVERSITY, priority 2014, dated 2015).

Legend:
[1] = test system: CD-1 mice; experiment: Neuropathic pain: chronic constriction injury (CCI) of the sciatic nerve, von Frey mechanical hyperalgesia test; assay type: in vivo
Source text: The assessment of the effectiveness of the compound for alleviating neuropathic pain used the animal model of chronic constriction injury (CCI) of the sciatic nerve, which was established by Bennett and Xie (1988). After the surgery, the mice developed long-lasting hypersensitivity to mechanical stimuli (chronic mechanical hyperalgesia) even being lightly touched. The mechanical hyperalgesia test was used to evaluate the analgesic effect of the compound.
The mice, after a week following the ligation surgery, were intraplantarly injected with a series of different dosages of the compound, 0.22, 2.2, 22 μg/kg or the mice were injected with 2.2 μg/kg of compound intrathecally, or with 44 μg/kg of the compound intraperitoneally. The hypersensitivity to mechanical stimuli was measured using von Frey filaments at 60 minutes after the injection. The mice injected with saline following surgery were the control group and the other mice injected with gabapentin following surgery were the positive control group.
2.2 μg/kg of the compound was administered to the mice by intraplantar injection about 5 minutes prior to the injection of the acid solution. An hour after the injection of the acid, the hypersensitivity of the mice to mechanical stimuli was measured using von Frey filaments (Touch-Test North Coast Medical, Inc., Margan Hill, Calif.). The mice were placed in transparent plastic chambers (10×8×10 cm) on a metal mesh floor at least 30 minutes per day for 2 days to acclimatize them to the testing room prior to the test. 60 minutes after the mice were administered with the compound, the mechanical hyperalgesia was assessed through the measurement of paw withdrawal frequencies by a sequential series of von Frey filaments of weights 0.6, 1.0, 1.4, 2.0 and 4.0 g applied perpendicularly to the plantar surface of the paw. The paw was briefly stimulated with force sufficient to slightly bend the filaments and a single trial consisted of repeated applications of the von Frey filaments five times, each application lasting for about 5 seconds. The occurrence of paw withdrawal resulting from the stimulation or removing the stimulation for each trial was quantified as a percentage response frequency for each monofilament. When the frequency was more than 50%, the weight of the von Frey filaments was determined as the paw withdrawal threshold (PWT). To make sure all the mice were under normal physical conditions, all housing conditions complied with general feeding standards, and the temperature and illumination were maintained in a suitable range.
According to the method described by Bennett and Xie, Pain, 1988, 33, 87-107, 8 to 12-week-old CD-1 mice were subjected to chronic constriction injury (CCI) of the sciatic nerve, which is an animal model inducing chronic neuropathic pain. To anesthetize the mice, each of the mice was injected with 240 mg/kg of 2,2,2-tribromoethanol (Avertin). Then three ligatures were loosely tied around the sciatic nerve of the mouse with chromic gut. The surgical procedure for the Sham (non ligation) control group was identical to that mentioned above except that the sciatic nerves were not ligated. A week after the mice in the experimental (CCI+compound) group had chronic constriction injury of sciatic nerves, the compound was intraplantarly, intrathecally, or intraperitoneally injected into the mice. 60 minutes after the injection, the mice were directly subjected to the hypersensitivity test to mechanical stimuli. The mice under the surgery treated with saline were the CCI group; the mice treated with gabapentin were the positive control (CCI+Gabapentin) group.

[2] = test system: human cancer cell lines; details: NCI panel (leukemia, non-small cell lung cancer, colon cancer, etc.); Taiwan Patent application 097112087; cited from earlier work
[3] = test system: CD-1 mice; experiment: Nociceptive pain: acute pain induced by acid solution, von Frey mechanical hyperalgesia test; assay type: in vivo
Method: Anthra[2,1-c][1,2,5]thiadiazole-6,11-dione (NSC745885, B1) was intraplantarly injected into the right hind paws of 8 to 12-week-old CD-1 mice. 5 minutes after the injection, 25 μL of pH 5.0 acid solution was intraplantarly injected into each of the mice. About 60 minutes later, the mice were directly tested with the hypersensitivity to mechanical stimuli using von Frey filaments (Touch-Test North Coast Medical, Inc., Margan Hill, Calif.). The control group was conducted under the same conditions except it was treated with a compound-free saline. […]
(§1) 2.2 μg/kg of the compound was administered to the mice by intraplantar injection about 5 minutes prior to the injection of the acid solution. An hour after the injection of the acid, the hypersensitivity of the mice to mechanical stimuli was measured using von Frey filaments (Touch-Test North Coast Medical, Inc., Margan Hill, Calif.). […] 60 minutes after the mice were administered with the compound, the mechanical hyperalgesia was assessed through the measurement of paw withdrawal frequencies by a sequential series of von Frey filaments of weights 0.6, 1.0, 1.4, 2.0 and 4.0 g applied perpendicularly to the plantar surface of the paw. […] The occurrence of paw withdrawal resulting from the stimulation or removing the stimulation for each trial was quantified as a percentage response frequency for each monofilament. […]

[4] = test system: mice; experiment: Inflammatory pain: chronic inflammatory pain induced by Complete Freund's Adjuvant (CFA), von Frey test; assay type: in vivo; details: 60 min after CFA
Method: When 50% CFA was intraplantarly injected into the mouse, paw edema and chronic mechanical hyperalgesia were developed in the tested mice. Different dosages of the anthra[2,1-c][1,2,5]thiadiazole-6,11-dione compound, 0.22, 2.2, 22 μg/kg were intraplantarly injected into mouse hindpaw, followed by 50% CFA injection. At 60 minutes after the CFA injection, the pain sensitivity of the mice was measured by mechanical stimulation using von Frey filaments.
as §1, with “monofilament. When the frequency was more than 50%, the weight of the von Frey filaments was determined as the paw withdrawal threshold (PWT).” for “monofilament.”

| Structure (SMILES) | dosage required to inhibit chronic mechanical hyperalgesia caused by CCI ([1]; intraperitoneal injection) | anti-proliferative activity against human cancer cell lines [2] | development of tolerance to the compound ([1]; 2.2 μg/kg intraplantar once every week for three weeks) | paw withdrawal threshold (PWT) ([1]; 2.2 μg/kg intraplantar once every week for three weeks, first week) [g] | paw withdrawal threshold (PWT) ([1]; 2.2 μg/kg intraplantar once every week for three weeks, second week) [g] | paw withdrawal threshold (PWT) ([1]; 2.2 μg/kg intraplantar once every week for three weeks, third week) [g] | paw withdrawal threshold (PWT) ([1]; 2.2 μg/kg intraplantar, one week after CCI surgery, 60 min after injection, CCI only 0.9±0.23 g, control 3.6±0.29 g) [g] | paw withdrawal threshold (PWT) ([1]; 2.2 μg/kg intrathecal, one week after CCI surgery, 60 min after injection) [g] | paw withdrawal threshold (PWT) ([1]; 22 μg/kg intraplantar, one week after CCI surgery, 60 min after injection) [g] | inhibition of mechanical hyperalgesia induced by CCI of the sciatic nerve ([1]; 44 μg/kg intraperitoneal) | paw withdrawal threshold (PWT) ([3]; 2.2 μg/kg intraplantar, 5 min before 25 μL pH 5.0 acid solution, measured about 60 min later, acid only 1.1±0.065 g, control 4.0±0 g) [g] | paw withdrawal threshold (PWT) ([3]; sole injection of the compound without the acid solution, did not induce pain) [g] | paw withdrawal threshold (PWT) ([4]; 2.2 μg/kg intraplantar 5 min before 50% CFA, CFA only 0.4±0.033 g, control 3.6±0.202 g) [g] | paw withdrawal threshold (PWT) ([4]; 22 μg/kg intraplantar 5 min before 50% CFA) [g] |
| --- | --- | --- | --- | --- | --- | --- | --- | --- | --- | --- | --- | --- | --- | --- |
| NCC1(CC(=O)O)CCCCC1 [gabapentin, reference compound] | at least 15,000 μg/kg |  |  |  |  |  |  |  |  |  |  |  |  |  |
| O=C1c2ccccc2C(=O)c2c1ccc1nsnc21 [B1, Anthra[2,1-c][1,2,5]thiadiazole-6,11-dione] |  | shows anti-proliferative activity against human cancer cell lines | no obvious indication that the mice developed tolerance | 2.5 ± 0.8 | 2.0 ± 0 | 2.7 ± 0.67 | 2.5 ± 0.8 | 4.0 | 4.0 ± 0.0 | completely inhibited mechanical hyperalgesia | 3.3 ± 0.67 | 4.0 ± 0 | 1.6 ± 0.15 | 3.0 ± 0.45 |
